Source: patent US20060058383A1 (priority 2004, published 2006)

Columns and labels:
[1] = tested on: cancer cells; test: In vitro anticancer activity versus other glycolytic inhibitors; assay type: cell-based
[2] = tested on: HL-60 cells; test: MTT assay, in vitro cytotoxic activity before and after storage of drug solutions; assay type: cell-based, human; conditions: pH 7.0, 72 h drug incubation
[3] = tested on: Raji cells; test: Cellular ATP pool by HPLC; assay type: cell-based, human
Procedure: HPLC analysis was then used to determine cellular ATP pool in an attempt to understand the biochemical basis of the synergistic activity of rapamycin and 3-BrOP. Raji cells were treated with various concentrations of 3-BrOP in the presence and absence of rapamycin (100 ng/ml) for 6 h, and cellular ATP and other nucleotide pools were measured by HPLC analysis as described in Examples herein.
Because this ATP depletion occurred before apoptosis became detectable, it seems that the enhancement of ATP depletion might be a biochemical mechanism by which rapamycin promote the cytotoxic effect of 3-BrOP. […]
After cells were treated with rapamycin and 3-BrOP under the desired conditions, cellular glucose uptake was measured by incubating the cells in glucose-free RPMI 1640 media with 0.2 μCi/ml of [^3H]-2-deoxyglucose (specific activity, 40 Ci/mmol) for 60 min. After the samples were washed three times with cold PBS, the radioactivity in the cell pellets was quantified by liquid scintillation counting. […] Intracellular nucleotides were extracted from the cells with 0.4 N of perchloric acid (PCA) for 10 min in ice-bath, neutralization with concentrated KOH to pH 7.0, and analyzed by HPLC analysis as described previously (Xu et al., 2005; Seymour et al., 1996). […] The relative cellular ATP levels were expressed as percent of the control cells.

[4] = Stability of neutral drug solution on storage
[5] = tested on: p70S6K, 4E-BP-1 and BAD phosphorylation in Raji cells; test: Phosphorylation of mTOR downstream targets and BAD, western blot; assay type: cell-based, human
Procedure: The phosphorylation of p70S6K and 4E-BP1, two target molecules of mTOR, was examined as indications of mTOR inhibition.
The effect of rapamycin on BAD phosphorylation in 3-BrOP-treated cells was examined.
Protein lysates were prepared from the control and drug-treated cells, and separated by electrophoresis on 10% SDS-PAGE. […] The antibodies were dilute at 1:1,000 unless indicated otherwise. The bound primary antibodies were detected using appropriate horseradish peroxidase-conjugated secondary antibodies, followed by detection with a SuperSignal enhanced chemiluminescence kit (Pierce, Rockford, Ill.). For sequential blotting, the membranes were stripped with a stripping buffer (Pierce, Rockford, Ill.) followed by re-blotting with proper antibodies.

[6] = tested on: HL-60 leukemia cells; test: Drug combination index, median-effect analysis; assay type: cell-based, human; conditions: combination with rapamycin (100 ng/ml), 24 h; CI less than 1 = synergistic
Procedure: (§1) FIGS. 35A-35D show synergistic cytotoxic effect of rapamycin and glycolycin (3-BrOP) in human lymphoma and leukemia cells. In FIG. 35A, the human lymphoma Raji cells were treated with 3-BrOP (30 μM), rapamycin (100 ng/ml), or their combinations as indicated, and apoptosis was measured by flow cytometry analysis after the cells were double-stained with annexin-V and PI as described in the Examples. In case of drug combination, cells were first treated with rapamycin for 18 h before addition of 3-BrOP and incubated for an additional 24 h or 48 h. In FIG. 35B, there is concentration-dependent induction of loss of cell viability by 3-BrOP in the presence and absence of rapamycin (100 ng/ml, 24 h) in Raji cells. Cells were double-stained with annexin-V and PI followed by flow cytometry analysis, and viable cells were expressed as % of control. […] Cell viability was determined as described above.
(§2) The above observations prompted the present inventors to use a formal drug combination analysis to determine if rapamycin and 3-BrOP have a synergistic effect. […] Cells were treated with various concentrations of 3-BrOP in the presence of a fixed concentration of rapamycin (100 ng/ml) for 24 h, and the percentage of apoptotic cells was quantitated by flow cytometry analysis using annexin-V/PI double staining. […]

[7] = tested on: Raji cells; test: Drug combination index, median-effect analysis; assay type: cell-based, human; conditions: combination with rapamycin (100 ng/ml), 24 h; CI less than 1 = synergistic
Procedure: as §1, §2

Q: Which results are given for `CCCOC(=O)C(=O)CBr` [Glycolycin, propyl 3-bromo-2-oxopropionate]?
A: potency as measured by IC50 relative to currently available glycolytic inhibitors with a similar mechanism of action [1]: 10-20 fold; % Cell Survival ([2]; 5 μM, fresh drug solution): 19.3 ± 5.7%; % Cell Survival ([2]; 10 μM, drug stored for 3 weeks at 4° C.): 3.0 ± 1.3%; % Cell Survival ([2]; 10 μM, fresh drug solution): 2.5 ± 0.8%; % Cell Survival ([2]; 30 μM, drug stored for 3 weeks at 4° C.): 2.9 ± 1.2%; % Cell Survival ([2]; 30 μM, fresh drug solution): 3.7 ± 0.6%; % Cell Survival ([2]; 100 μM, drug stored for 3 weeks at 4° C.): 2.5 ± 0.9%; % Cell Survival ([2]; 100 μM, fresh drug solution): 3.5 ± 1.7%; cellular ATP pool ([3]; 6-h treatment after pre-incubation with 100 ng/ml rapamycin for 18 h): significantly enhanced the depletion of cellular ATP; cellular ATP pool ([3]; various concentrations, 6 h): concentration-dependent decrease; activity of solution after storage ([4]; kept at 4° C. for 3 weeks): remained stable; stability of solution at neutral pH ([4]; pH 7.0, kept at 4° C.): stable; BAD phosphorylation at Ser112 ([5]; 20 μM, 6 hours): did not reduce; BAD phosphorylation at Ser112 ([5]; 40 μM in the presence of rapamycin (100 ng/ml)): complete abolished; BAD phosphorylation at Ser112 ([5]; 40 μM, 6 hours): substantial decrease; phosphorylation of P70 S6K at Thr389 and 4E-BP-1 at Ser65 ([5]; 40 μM, 6 hours): some inhibition; drug combination index (CI) [6]: < 1.0; drug combination index (CI) [7]: < 1.0
